# Experimental data reported in patent publication US20250171437A1 (Agios Pharmaceuticals,Inc., priority 2022, published 2025).
# Molecular target: T1, human PAH with the R408W mutation (A375 R408W cells) (Homo sapiens, UniProt P00439, R408W)
# T1 construct: expressed in transfected cells
# T1 sequence (P00439 1-452 R408W): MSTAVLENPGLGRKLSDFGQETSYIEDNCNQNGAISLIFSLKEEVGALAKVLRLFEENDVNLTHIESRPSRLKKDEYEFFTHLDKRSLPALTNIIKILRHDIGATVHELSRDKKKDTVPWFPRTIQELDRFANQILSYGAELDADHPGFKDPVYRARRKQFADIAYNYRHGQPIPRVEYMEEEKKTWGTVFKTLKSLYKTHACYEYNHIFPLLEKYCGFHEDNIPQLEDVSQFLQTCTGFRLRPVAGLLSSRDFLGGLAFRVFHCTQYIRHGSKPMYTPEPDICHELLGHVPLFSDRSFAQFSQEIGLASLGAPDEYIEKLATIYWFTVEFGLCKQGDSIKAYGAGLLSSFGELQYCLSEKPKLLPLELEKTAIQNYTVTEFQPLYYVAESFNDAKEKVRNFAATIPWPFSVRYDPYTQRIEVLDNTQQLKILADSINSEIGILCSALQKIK
# Assay: Cell Based Phenylalanine Flux Assay
# Conditions: A375 R408W cells; 24 hrs with compound, then 20 μM sepiapterin and 800 μM 13C9,15N-Phenylalanine for 4 hours; 13C-Tyrosine by LC-MS; average where tested multiple times
# In short: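 Stable R408W PAH A375 cells: 24 h compound pretreatment in duplicate, then 4 h with 800 μM isotope-labelled Phe and 20 μM sepiapterin. Labelled Tyr output by LC-MS; AC50 averaged where repeated.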
row,AC50 [nM],Structure (SMILES)
1,1000 to 5000,"O=C(c1nnc(-c2cnccn2)o1)N1CCc2[nH]cnc2[C@@H]1c1nc2cc(F)ccc2o1 [Example 627, (R)-(4-(5-fluorobenzo[d]oxazol-2-yl)-6,7-dihydro-1H-imidazo[4,5-c]pyridin-5(4H)-yl)(5-(pyrazin-2-yl)-1,3,4-oxadiazol-2-yl)methanone]"
2,1000 to 5000,"Cn1cnc(-c2nc(C(F)F)c(C(=O)N3CCc4[nH]cnc4[C@@H]3c3nc4cc(F)ccc4o3)o2)c1 [Example 642, (R)-(4-(difluoromethyl)-2-(1-methyl-1H-imidazol-4-yl)oxazol-5-yl)(4-(5-fluorobenzo[d]oxazol-2-yl)-6,7-dihydro-1H-imidazo[4,5-c]pyridin-5(4H)-yl)methanone]"
3,1000 to 5000,"CN1CCN(c2ccc3c(C(=O)N4CCc5[nH]cnc5[C@@H]4c4nc5c(F)cccc5o4)cnn3c2)CC1 [Example 476, (R)-(4-(4-fluorobenzo[d]oxazol-2-yl)-6,7-dihydro-1H-imidazo[4,5-c]pyridin-5(4H)-yl)(6-(4-methylpiperazin-1-yl)pyrazolo[1,5-a]pyridin-3-yl)methanone]"
4,≤ 500,"CC(C)(O)c1nc(C(F)F)c(C(=O)N2CCc3[nH]cnc3[C@@H]2c2nc3c(Br)cccc3o2)o1 [Example 432, (R)-(4-(4-bromobenzo[d]oxazol-2-yl)-6,7-dihydro-1H-imidazo[4,5-c]pyridin-5(4H)-yl)(4-(difluoromethyl)-2-(2-hydroxypropan-2-yl)oxazol-5-yl)methanone]"
5,≤ 500,"O=C(c1nnc(-c2cnn(C3CCC3)c2)o1)N1CCc2[nH]cnc2[C@H]1c1nc2c(F)ccc(F)c2o1 [Example 811, (S)-(5-(1-cyclobutyl-1H-pyrazol-4-yl)-1,3,4-oxadiazol-2-yl)(4-(4,7-difluorobenzo[d]oxazol-2-yl)-6,7-dihydro-1H-imidazo[4,5-c]pyridin-5(4H)-yl)methanone]"
6,500 to 1000,"CN1CCN(c2nc(C(F)F)c(C(=O)N3CCc4[nH]cnc4[C@@H]3c3nc4cccc(F)c4o3)o2)CC1 [Example 618, (R)-(4-(difluoromethyl)-2-(4-methylpiperazin-1-yl)oxazol-5-yl)(4-(7-fluorobenzo[d]oxazol-2-yl)-6,7-dihydro-1H-imidazo[4,5-c]pyridin-5(4H)-yl)methanone]"
7,500 to 1000,"Cn1nc(Br)nc1C(=O)N1CCc2[nH]cnc2[C@H]1c1nc2c(F)cccc2o1 [Example 471, (S)-(3-bromo-1-methyl-1H-1,2,4-triazol-5-yl)(4-(4-fluorobenzo[d]oxazol-2-yl)-6,7-dihydro-1H-imidazo[4,5-c]pyridin-5(4H)-yl)methanone]"
8,1000 to 5000,"Cn1cc(-c2ccc3c(C(=O)N4CCc5[nH]cnc5[C@@H]4c4nc5cccc(F)c5o4)cnn3c2)cn1 [Example 384, (R)-(4-(7-fluorobenzo[d]oxazol-2-yl)-6,7-dihydro-1H-imidazo[4,5-c]pyridin-5(4H)-yl)(6-(1-methyl-1H-pyrazol-4-yl)pyrazolo[1,5-a]pyridin-3-yl)methanone]"
9,≤ 500,"O=C(c1oc(-c2cncnc2)nc1C(F)F)N1CCc2[nH]cnc2[C@H]1c1nc2cc(F)ccc2o1 [Example 406, (S)-(4-(difluoromethyl)-2-(pyrimidin-5-yl)oxazol-5-yl)(4-(5-fluorobenzo[d]oxazol-2-yl)-6,7-dihydro-1H-imidazo[4,5-c]pyridin-5(4H)-yl)methanone]"
10,1000 to 5000,"COc1ccc2oc([C@H]3c4nc[nH]c4CCN3C(=O)c3nnc(-c4ccccn4)o3)nc2c1 [Example 556, (R)-(4-(5-methoxybenzo[d]oxazol-2-yl)-6,7-dihydro-1H-imidazo[4,5-c]pyridin-5(4H)-yl)(5-(pyridin-2-yl)-1,3,4-oxadiazol-2-yl)methanone]"
11,500 to 1000,"O=C(c1ccnn1C(F)(F)F)N1CCc2[nH]cnc2[C@H]1c1nc2ccc(F)cc2o1 [Example 287, (S)-(4-(6-fluorobenzo[d]oxazol-2-yl)-6,7-dihydro-1H-imidazo[4,5-c]pyridin-5(4H)-yl)(1-(trifluoromethyl)-1H-pyrazol-5-yl)methanone]"
12,≤ 500,"O=C(c1ocnc1C(F)F)N1CCc2[nH]cnc2[C@H]1c1nc2c(C(F)(F)F)cccc2o1 [Example 465, (S)-(4-(difluoromethyl)oxazol-5-yl)(4-(4-(trifluoromethyl)benzo[d]oxazol-2-yl)-6,7-dihydro-1H-imidazo[4,5-c]pyridin-5(4H)-yl)methanone]"
13,500 to 1000,"Cc1cccc2oc([C@@H]3c4nc[nH]c4CCN3C(=O)c3cnc(C(C)(C)O)o3)nc12 [Example 511, (S)-(2-(2-hydroxypropan-2-yl)oxazol-5-yl)(4-(4-methylbenzo[d]oxazol-2-yl)-6,7-dihydro-1H-imidazo[4,5-c]pyridin-5(4H)-yl)methanone]"
14,1000 to 5000,"O=C(c1cnn(-c2ccccn2)c1)N1CCc2[nH]cnc2[C@@H]1c1nc2cc(F)ccc2o1 [Example 880, (R)-(4-(5-fluorobenzo[d]oxazol-2-yl)-6,7-dihydro-1H-imidazo[4,5-c]pyridin-5(4H)-yl)(1-(pyridin-2-yl)-1H-pyrazol-4-yl)methanone]"
15,≤ 500,"O=C(c1oc(-c2ccc(C(F)(F)F)cn2)nc1C(F)F)N1CCc2[nH]cnc2[C@H]1c1nc2cccc(F)c2o1 [Example 633, (S)-(4-(difluoromethyl)-2-(5-(trifluoromethyl)pyridin-2-yl)oxazol-5-yl)(4-(7-fluorobenzo[d]oxazol-2-yl)-6,7-dihydro-1H-imidazo[4,5-c]pyridin-5(4H)-yl)methanone]"
16,500 to 1000,"Cc1cccc2oc([C@@H]3c4nc[nH]c4CCN3C(=O)c3ncnn3C)nc12 [Example 901, (S)-(1-methyl-1H-1,2,4-triazol-5-yl)(4-(4-methylbenzo[d]oxazol-2-yl)-6,7-dihydro-1H-imidazo[4,5-c]pyridin-5(4H)-yl)methanone]"
17,≥ 5000,"O=C(c1cccnc1)N1Cc2[nH]cnc2[C@H]1c1nc2ccccc2o1 [Example 927, (S)-(4-(benzo[d]oxazol-2-yl)-4,6-dihydropyrrolo[3,4-d]imidazol-5(1H)-yl)(pyridin-3-yl)methanone]"
18,1000 to 5000,"CC(O)c1nc(Cl)c(C(=O)N2CCc3[nH]cnc3[C@@H]2c2nc3cc(F)ccc3o2)o1 (single isomer, unassigned) [Example 234]"
19,1000 to 5000,"Cc1ccc2oc([C@H]3c4nc[nH]c4CCN3C(=O)c3nnc(-c4ccn(C)n4)o3)nc2c1 [Example 390, (R)-(5-(1-methyl-1H-pyrazol-3-yl)-1,3,4-oxadiazol-2-yl)(4-(5-methylbenzo[d]oxazol-2-yl)-6,7-dihydro-1H-imidazo[4,5-c]pyridin-5(4H)-yl)methanone]"
20,≤ 500,"O=C(c1nnc(-c2cnn(C(F)F)c2)o1)N1CCc2[nH]cnc2[C@@H]1c1nc2cccc(F)c2o1 [Example 876, (R)-(5-(1-(difluoromethyl)-1H-pyrazol-4-yl)-1,3,4-oxadiazol-2-yl)(4-(7-fluorobenzo[d]oxazol-2-yl)-6,7-dihydro-1H-imidazo[4,5-c]pyridin-5(4H)-yl)methanone]"
21,500 to 1000,"O=C(c1ocnc1C(F)F)N1CC2(CC2)c2[nH]cnc2[C@@H]1c1nc2cccc(F)c2o1 [Example 912, (R)-(4-(difluoromethyl)oxazol-5-yl)(4′-(7-fluorobenzo[d]oxazol-2-yl)spiro[cyclopropane-1,7′-imidazo[4,5-c]pyridin]-5′(1′H,4′H,6′H)-yl)methanone]"
22,1000 to 5000,"Cn1cc(-c2nnc(C(=O)N3CCc4[nH]cnc4[C@@H]3c3nc4ccc(F)c(F)c4o3)o2)cn1 [Example 516, (R)-(4-(6,7-difluorobenzo[d]oxazol-2-yl)-6,7-dihydro-1H-imidazo[4,5-c]pyridin-5(4H)-yl)(5-(1-methyl-1H-pyrazol-4-yl)-1,3,4-oxadiazol-2-yl)methanone]"

# Same assay, conditions: A375 cells expressing R408W PAH; 24 hrs with compound, then 20 μM sepiapterin and 800 μM 13C9,15N-Phenylalanine for 4 hours; 13C-Tyrosine by LC-MS; average where tested multiple times
row,AC50 [nM],Structure (SMILES)
1,1000 to 5000,Cn1ncnc1C(=O)N1CCc2[nH]cnc2C1c1nc2cc(F)ccc2o1 (centres unmarked)
2,1000 to 5000,O=C(c1nnc(-c2cnn(CC(F)(F)F)c2)o1)N1CCc2[nH]cnc2C1c1nc2cc(F)ccc2o1 (centres unmarked)
3,≥ 5000,Cc1cccc2nc(C3c4nc[nH]c4CCN3C(=O)c3ccn(-c4ccccn4)n3)oc12 (centres unmarked)
4,1000 to 5000,O=C(c1cnn2cc(N3CCC(F)CC3)ccc12)N1CCc2[nH]cnc2C1c1nc2cc(F)ccc2o1 (centres unmarked)
5,1000 to 5000,O=C(c1nnc(-c2ccn[nH]2)o1)N1CCc2[nH]cnc2C1c1nc2ccc(F)cc2o1 (centres unmarked)
6,1000 to 5000,COc1cccc2oc(C3c4nc[nH]c4CCN3C(=O)c3cnc(C(C)(C)O)o3)nc12 (centres unmarked)
7,1000 to 5000,"CN1C2CCC1CN(c1ccc3c(C(=O)N4CCc5[nH]cnc5C4c4nc5cc(F)ccc5o4)cnn3c1)C2 (single isomer, unassigned)"
8,1000 to 5000,O=C(CCc1cnco1)N1CCc2[nH]cnc2C1c1nc2cc(F)ccc2o1 (centres unmarked)
9,1000 to 5000,Cc1ccc2nc(C3c4nc[nH]c4CCN3C(=O)c3cncs3)oc2c1 (centres unmarked)
10,1000 to 5000,COCc1ccc2c(C(=O)N3CCc4[nH]cnc4C3c3nc4ccc(F)cc4o3)cnn2c1 (centres unmarked)
11,1000 to 5000,O=C(CCc1cncs1)N1CCc2[nH]cnc2C1c1nc2cc(F)ccc2o1 (centres unmarked)
12,≥ 5000,O=C(c1cnco1)N1CCc2[nH]cnc2C1c1nc2c(F)cc(F)cc2o1 (centres unmarked)
13,1000 to 5000,O=C(c1cnn2cc(Cl)ccc12)N1CCc2[nH]cnc2C1c1nc2cc(F)ccc2o1 (centres unmarked)
